Earlier results as cited in patent US9533949B2, “Processes for the preparation of 3-alkyl indoles” (APOTEX PHARMACHEM INC., priority 2012, dated 2017).

Assays:
insulin receptor = insulin receptor (Homo sapiens, UniProt P06213)
[1] = target: T1, insulin-like growth factor-I receptor (IGF-1R) (Homo sapiens, UniProt P08069); details: allosteric inhibitor
[2] = target: T1, insulin-like growth factor-I receptor (IGF-1R); details: allosteric inhibitor; remark: listed apart in the source
D2 receptor = D2 receptor (Homo sapiens, UniProt P14416); details: selectivity to other GPCRs
D2 receptor, sequence (P14416 whole entry): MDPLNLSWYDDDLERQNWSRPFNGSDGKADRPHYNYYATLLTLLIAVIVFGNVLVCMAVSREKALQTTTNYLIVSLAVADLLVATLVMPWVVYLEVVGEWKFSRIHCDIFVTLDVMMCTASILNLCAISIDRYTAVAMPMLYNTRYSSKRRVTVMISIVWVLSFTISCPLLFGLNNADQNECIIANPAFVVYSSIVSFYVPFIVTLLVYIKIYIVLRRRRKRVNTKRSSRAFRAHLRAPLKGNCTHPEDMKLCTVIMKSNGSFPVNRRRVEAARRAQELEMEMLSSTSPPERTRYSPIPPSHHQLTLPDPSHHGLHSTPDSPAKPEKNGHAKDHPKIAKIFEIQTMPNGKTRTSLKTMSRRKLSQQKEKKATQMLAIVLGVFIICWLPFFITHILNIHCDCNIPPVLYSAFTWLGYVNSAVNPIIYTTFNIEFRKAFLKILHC

T1 sequence (P08069 31-1367, species assumed): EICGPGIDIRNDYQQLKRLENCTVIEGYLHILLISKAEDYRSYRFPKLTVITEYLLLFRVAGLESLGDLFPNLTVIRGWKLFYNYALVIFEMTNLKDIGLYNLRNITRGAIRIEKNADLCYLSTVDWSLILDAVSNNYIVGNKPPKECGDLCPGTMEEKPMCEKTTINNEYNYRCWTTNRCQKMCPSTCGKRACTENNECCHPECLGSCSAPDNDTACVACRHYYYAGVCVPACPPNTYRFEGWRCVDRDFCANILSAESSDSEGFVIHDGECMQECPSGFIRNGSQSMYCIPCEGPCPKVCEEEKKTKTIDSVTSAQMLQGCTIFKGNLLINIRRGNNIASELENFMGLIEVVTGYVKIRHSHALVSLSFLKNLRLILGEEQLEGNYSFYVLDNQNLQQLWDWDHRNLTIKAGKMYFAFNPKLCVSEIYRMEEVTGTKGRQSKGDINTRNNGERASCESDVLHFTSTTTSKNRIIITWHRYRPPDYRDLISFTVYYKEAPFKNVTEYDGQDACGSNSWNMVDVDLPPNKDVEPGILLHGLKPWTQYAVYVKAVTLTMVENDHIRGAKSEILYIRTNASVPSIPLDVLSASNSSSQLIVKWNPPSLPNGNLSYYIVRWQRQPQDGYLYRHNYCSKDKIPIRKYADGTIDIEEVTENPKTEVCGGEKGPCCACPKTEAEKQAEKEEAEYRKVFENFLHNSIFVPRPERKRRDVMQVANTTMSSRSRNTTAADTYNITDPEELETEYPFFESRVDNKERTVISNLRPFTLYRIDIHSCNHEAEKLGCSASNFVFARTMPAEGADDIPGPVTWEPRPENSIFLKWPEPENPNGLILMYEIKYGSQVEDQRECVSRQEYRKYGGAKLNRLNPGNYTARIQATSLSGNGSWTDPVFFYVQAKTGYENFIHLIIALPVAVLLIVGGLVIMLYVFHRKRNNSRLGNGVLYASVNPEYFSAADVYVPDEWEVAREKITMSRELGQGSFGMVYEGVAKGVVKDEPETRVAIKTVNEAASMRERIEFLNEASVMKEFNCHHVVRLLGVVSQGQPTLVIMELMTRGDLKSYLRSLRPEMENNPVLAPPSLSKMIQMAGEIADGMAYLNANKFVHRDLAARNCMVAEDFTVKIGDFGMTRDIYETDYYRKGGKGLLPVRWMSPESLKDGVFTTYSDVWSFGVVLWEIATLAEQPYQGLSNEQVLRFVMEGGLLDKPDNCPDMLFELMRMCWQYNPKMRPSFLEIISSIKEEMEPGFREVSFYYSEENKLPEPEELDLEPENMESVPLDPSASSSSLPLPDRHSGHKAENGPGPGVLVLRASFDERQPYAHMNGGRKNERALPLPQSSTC
insulin receptor, sequence (P06213 28-1382, species assumed): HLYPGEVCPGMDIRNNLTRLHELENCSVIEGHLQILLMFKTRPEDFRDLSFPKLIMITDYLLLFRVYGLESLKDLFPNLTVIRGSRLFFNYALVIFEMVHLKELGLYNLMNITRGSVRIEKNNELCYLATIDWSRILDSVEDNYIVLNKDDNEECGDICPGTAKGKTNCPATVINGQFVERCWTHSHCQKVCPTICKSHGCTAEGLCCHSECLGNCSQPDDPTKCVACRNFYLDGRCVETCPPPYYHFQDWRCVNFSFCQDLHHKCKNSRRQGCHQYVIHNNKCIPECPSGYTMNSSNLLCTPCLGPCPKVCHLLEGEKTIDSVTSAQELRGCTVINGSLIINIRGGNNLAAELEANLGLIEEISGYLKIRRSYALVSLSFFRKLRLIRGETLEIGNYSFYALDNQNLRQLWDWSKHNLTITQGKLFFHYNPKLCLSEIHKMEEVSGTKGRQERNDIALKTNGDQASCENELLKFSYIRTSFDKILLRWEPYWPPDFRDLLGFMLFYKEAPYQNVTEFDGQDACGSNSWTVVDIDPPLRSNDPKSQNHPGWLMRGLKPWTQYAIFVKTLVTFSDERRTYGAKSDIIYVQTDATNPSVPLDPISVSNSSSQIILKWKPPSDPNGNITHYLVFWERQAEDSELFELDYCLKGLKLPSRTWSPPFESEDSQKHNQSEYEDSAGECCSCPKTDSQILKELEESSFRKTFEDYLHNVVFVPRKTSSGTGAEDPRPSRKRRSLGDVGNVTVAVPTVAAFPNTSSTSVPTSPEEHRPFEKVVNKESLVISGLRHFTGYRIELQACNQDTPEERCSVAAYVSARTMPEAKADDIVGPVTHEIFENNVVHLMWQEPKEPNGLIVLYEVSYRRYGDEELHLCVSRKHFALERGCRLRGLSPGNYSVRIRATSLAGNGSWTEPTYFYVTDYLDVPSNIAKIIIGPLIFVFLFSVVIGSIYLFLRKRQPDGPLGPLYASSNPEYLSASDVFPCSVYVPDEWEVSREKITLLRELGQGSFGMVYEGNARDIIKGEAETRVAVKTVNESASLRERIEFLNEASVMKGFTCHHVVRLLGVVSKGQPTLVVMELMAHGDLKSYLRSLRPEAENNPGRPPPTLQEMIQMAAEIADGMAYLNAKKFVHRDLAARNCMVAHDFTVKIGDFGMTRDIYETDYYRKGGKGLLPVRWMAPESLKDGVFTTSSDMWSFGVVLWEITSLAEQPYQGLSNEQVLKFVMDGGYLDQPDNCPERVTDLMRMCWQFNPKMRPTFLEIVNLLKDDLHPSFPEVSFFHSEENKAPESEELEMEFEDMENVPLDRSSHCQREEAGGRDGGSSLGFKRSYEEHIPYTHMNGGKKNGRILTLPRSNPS

| no relevant interference with cellular insulin receptor signaling up to (insulin receptor) | cellular IGF-1R activity [1] | biochemical IGF-1R activity [2] | IC50 (D2 receptor) | Structure (SMILES) |
| --- | --- | --- | --- | --- |
| > 30 µM | micromolar | nanomolar |  | N#Cc1ccc2[nH]cc(CCCCN3CCC(NC(=O)c4cccc5c(C#N)c[nH]c45)CC3)c2c1 [compound 10, 3-Cyano-1H-indole-7-carboxylic acid {1-[4-(5-cyano-1H-indol-3-yl)butyl]piperidin-4-yl}amide] |
|  |  |  | 666 nM | N#Cc1ccc2[nH]cc(CCCCN3CCN(c4ccc5oc(C(N)=O)cc5c4)CC3)c2c1 [vilazodone, 5-{4-[4-(5-Cyano-3-indolyl)butyl]-1-piperazinyl}benzofuran-2-carboxamide] |
